From patent publication US12077495B2 (priority 2018, dated 2024)

Tests used:
[1] = tested on: photothrombotic focal ischemia in C57BL/6J mice; experiment: Photothrombotic mouse model of focal ischemia, infarct volume; type: in vivo; details: for infarct volume: saline 9.38
Description: All procedures were performed in accordance with the guidelines on the care and use of laboratory animals set out by the University of Otago, Animal Research Committee and the Guide for Care and Use of Laboratory Animals (NIH Publication No. 85-23, 1996). All in vivo studies were approved by the University of Otago Animal Ethics Committee and are reported according to the ARRIVE (Animal Research: Reporting In Vivo Experiments) guidelines. The photochemical cortical lesion model resembles situations of acute brain injury related clinically to stroke and traumatic brain injury (TBI). Focal ischemia was induced by photothrombosis in male C57BL/6J mice (8-10 weeks) weighing ˜23-30 g as previously described (Clarkson et al., 2010). Under anesthesia with isoflurane (2% to 2.5% in O2) mice were placed in a stereotactic apparatus, the skull exposed through a midline incision, cleared of connective tissue and dried. A cold light source (KL1500 LCD, Zeiss, Auckland, New Zealand) attached to a 40× objective providing a 2-mm diameter illumination was positioned 1.5 mm lateral from bregma. Then, 0.2 ml of Rose Bengal (Sigma-Aldrich, Auckland, New Zealand; 10 mg/ml in normal saline) was administered i.p. After 5 min, the brain was illuminated through the exposed intact skull for 15 min, while keeping body temperature at 37.0±0.3° C. degrees using a heating pad (Harvard apparatus, Holliston, MA, USA). The skin was glued and animals left in a cage placed on a heating pad during the wake-up phase. Mice were housed under a 12-hr light/dark cycle with ad libitum access to food and water. Further, the mice were monitored and weighed on a daily basis.
For in vivo studies, all compounds were dissolved in a mixture of sterile saline and H2O to obtain isotonicity (0.9%) and administered as 10 mg/ml and 10 μl of solution per gram mouse body weight. The injection of compound (i.p.) was performed 30 min, 3, 6 or 12 hrs after induction of the photothrombotic stroke. The vehicle groups received a corresponding volume of saline (0.9%) at the same time points (30 min, 3, 6 or 12 hrs).
For quantification of the infarcted area, animals were perfused with saline and then with 4% paraformaldehyde (PFA) and the brain dissected out and submerged in 4% PFA for post-fixing overnight. Then the brains were moved to 30% sucrose solution and kept at 4° C. until processing. Brains were cut in 30 μm sections, free-floating in anti-freeze media. Sections were mounted, stained for cresyl violet and the infarct volumes determined by measuring every 6th section through the entire infarct as described in Lie et al (2017). All analyses were performed by an observer blinded to the treatment groups. Brains from the pMCAO studies were flash-frozen in CO2 (gas) and processed into six parallel series of sections (30 μm). Separate series were collected on glass slides and used for infarct size analysis or in Eppendorf tubes and used for qPCR. The glass slides were stored at −80° C. until further processing, and then Cresyl-Violet stained and quantified as described for the photothrombotic photochemical method.

[2] = tested on: permanent middle cerebral artery occlusion in C57BL/6J mice; experiment: pMCAO model, behavioural assessment (rotarod, grip strength, Hargreaves); type: in vivo; details: 175 mg/kg 30 min after pMCAO
Description: To assess sensory-motor impairment, animals were tested in the rotarod, grip strength and Hargreaves tests 2-3 days post-stroke.
The rotarod (LE 8200, Panlab) measures motor performance in rodents by assessing the time during which the animal remains on a rotating rod. The rod rotation accelerates from 0 to 40 rounds per min (rpm) over a time period of 5 min 48 hrs post-stroke, mice were tested in four repeating trials with a 20 min interval (resting time). Prior to surgery, mice were pretrained to stay on the rod for 30 s at 4 rpm. The grip strength meter (BIO-GT-3, BIOSEB) allowed the study of neuromuscular functions in mice by determining the maximum force that is required to make the mouse release its grip.
The mouse is allowed to grasp a metal grid and then pulled backwards in the horizontal plane. The force applied to the grid is recorded as the peak tension. Individual (right and left) and total (both) front paw grip strength was measured before (baseline) and 3 days after pMCAO. Each mouse was tested in five sequential trials and the highest grip strength was recorded as the score. Thermal hyperalgesia (hind paw withdrawal from a normally innocuous heat source) was tested with a Hargreaves test setup. […] The lowest and highest reflex latency scores were discarded and the average for left and right was calculated and plotted.
Compound A (175 mg/kg) was administered to mice 30 min after induction of a focal stroke via a permanent occlusion of the middle cerebral artery and compared to saline-treated animals and both motor- and sensory impairment was investigated using rotarod, grip strength and Hargreaves tests.

CAMK2A = target: T1, CAMK2A (Rattus norvegicus, UniProt P11275); experiment: biochemical; type: binding; details: whole cell lysates of CAMK2A-transfected HEK293T cells
T1 construct: host or cells: HEK293T
Description: Cells were transfected with rat CAMK2A (Origene construct RR201121) or rat CAMK2B (Origene construct RR200520) using PolyFect (Qiagen, West Sussex, UK) according to the manufacturer's protocol. Whole cell homogenates were prepared 48 hr post-transfection by washing the cells with ice-cold 1×PBS and harvesting by scraping. Cells were collected and centrifuged for 10 min at 1000×g. Cell pellets were resuspended in ice-cold 1×PBS and homogenized using 2×1 mm zirkonium beads in a bullet blender for 20 s at max speed (NextAdvance, NY, USA). Homogenates were cleared by centrifugation (10 min, 4° C., 14.000×g). Protein concentration was determined using the Bradford protein assay. 150-200 μg protein was incubated with 5 nM ^3H-A and test compound in 1 ml total volume for 1 hr at 0-4° C. […] Proteins were then precipitated by addition of ice-cold acetone (4× of the assay volume), vortexing and incubation at −20° C. for 1 hr. Proteins were filtrated rapidly through GF/C unifilters (Whatman) and washed. The dried filters were added scintillation liquid and radioactivity measured on a Tricarb 2100 Scintillation counter (Packard).
A) Principle of photoaffinity labelling workflow. […] After introduction of biotin through a Staudinger-Bertozzi ligation to EZ-Link™ Phosphine-PEG3-Biotin (ThermoFisher Scientific), the biotin-labelled proteins were affinity-purified and subjected to LC-MS/MS analysis. […] C)^3H-A binding to cortical membranes from CAMK2A and CAMK2B knock-out mouse brains.
Human/rat CAMK2A expressed in HEK cells was assayed in an in-house established ^3H-A filtration binding assay performed on whole cell lysates of CAMK2A-transfected HEK293T cells.

[3] = tested on: proton-coupled transporters (MCTs) endogenously present in tsA201 cells; experiment: MCT-mediated uptake in tsA201 cells (BCECF pH-sensitive dye); type: cell-based; details: 2 min, read-out: EC50, concentration-dependent decrease in intracellular pH
Description: Uptake was measured using the cell-permeable pH-sensitive dye 2′,7′-Bis(2-carboxyethyl)-5(6)-carboxyfluorescein acetoxymethyl ester (BCECF-AM) (Molecular Probes), utilizing the endogenous expression of MCTs in tsA201 cells. The day before the assay, cells were plated (50,000 cells/well) in black poly-D-lysin-coated 96-well plates with clear bottom (VWR, Radnor, PA, USA). […] Cells were then washed twice with 100 μl buffer and the cell plate assayed at 37° C. in a FlexStation 3 reader (Molecular Devices).
Cells (tsA201; related to HEK293-T) known to express MCTs were grown in 96-well plates and exposed to compounds and pH-decreased measured for 2 min.

[4] = 175 mg/kg i.p. 30 min after stroke, day 3

T1 sequence (P11275 whole entry): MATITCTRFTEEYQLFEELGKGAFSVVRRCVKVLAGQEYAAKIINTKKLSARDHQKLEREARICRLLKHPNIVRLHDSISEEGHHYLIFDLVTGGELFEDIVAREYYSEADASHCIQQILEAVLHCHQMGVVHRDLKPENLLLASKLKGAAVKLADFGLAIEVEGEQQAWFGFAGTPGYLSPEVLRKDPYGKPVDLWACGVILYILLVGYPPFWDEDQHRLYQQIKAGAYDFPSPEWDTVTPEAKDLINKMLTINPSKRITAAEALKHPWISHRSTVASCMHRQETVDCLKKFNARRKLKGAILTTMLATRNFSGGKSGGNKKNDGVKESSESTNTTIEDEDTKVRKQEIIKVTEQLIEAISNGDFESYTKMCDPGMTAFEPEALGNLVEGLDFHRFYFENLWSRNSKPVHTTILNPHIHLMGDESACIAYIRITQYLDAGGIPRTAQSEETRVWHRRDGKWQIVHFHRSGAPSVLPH

O=C(O)C1=CC(O)CC1 (centres unmarked) [Compound A, 3-hydroxycyclopent-1-enecarboxylic acid]
infarct volume ([1]; 17.5 mg/kg i.p. 30 min after stroke, day 3, not significant): 8.95 mm^3
decrease of infarct size vs saline ([1]; 90 mg/kg 3 hrs after stroke): 51%
infarct size ([1]; 90 mg/kg 3 hrs after stroke, saline 5.55): 2.68 mm^3
decrease of infarct size vs saline ([1]; 175 mg/kg i.p. 3, 6 or 12 hrs after stroke): 33-43%
reduction of infarct volume vs saline [1, 4]: 30%
infarct volume [1, 4]: 6.56 mm^3
infarct size ([1]; 175 mg/kg i.p. 3 hrs after stroke, saline 5.51): 3.12 mm^3
infarct size ([1]; 175 mg/kg i.p. 6 hrs after stroke, saline 5.51): 3.68 mm^3
infarct size ([1]; 175 mg/kg i.p. 12 hrs after stroke, saline 5.51): 3.58 mm^3
Hargreaves test, increased response time in affected forelimb [2]: not evident
rotarod test, learning ([2]; 48 hrs post-stroke, T1 to T2): steeper learning curve
grip strength deficit in affected fore limb ([2]; three days after stroke): did not demonstrate any deficit
Ki (CAMK2A): 0.00195 mM
EC50 [3]: 8.2 mM
